In publication PMC7129073 (Clinical Microbiology and Infection, 2015):
In brackets after ≈: the same amount, converted by molar mass.

Columns and labels:
[1] = system: Coagulase Negative Staphylococci; assay: E-test susceptibility; type: cell-based
[2] = system: S. aureus; assay: E-test susceptibility; type: cell-based, Staphylococcus aureus
[3] = system: B. fragilis; assay: NCCLS broth microdilution, beta-lactamase positive isolates; type: cell-based, Bacteroides fragilis; conditions: 48 hr
[4] = system: B. ovatus; assay: as above; type: cell-based, Bacteroides ovatus; conditions: 48 hr
[5] = system: B. thetaiotaomicron; assay: as above; type: cell-based, Bacteroides thetaiotaomicron; conditions: 48 hr
[6] = system: B. vulgatus; assay: as above; type: cell-based, Bacteroides vulgatus; conditions: 48 hr
[7] = system: B. distasonis; assay: as above; type: cell-based, Bacteroides distasonis; conditions: 48 hr
[8] = system: S. pneumoniae; type: cell-based, Streptococcus pneumoniae
[9] = system: foreign body infection Staphylococcus epidermidis strains; assay: NCCLS disk diffusion; type: cell-based; conditions: 86 strains
[10] = system: C. difficile; assay: E-test, isolates from a department of surgery; type: cell-based, Clostridium difficile; conditions: Clostridioides difficile, read-out: MIC of high level resistant strains
[11] = system: F. necrophorum; assay: E-test, 13 clinical isolates; type: cell-based, Fusobacterium necrophorum
[12] = system: S. pneumoniae (SPN); assay: SENTRY Brazil, NCCLS broth microdilution; type: cell-based, Streptococcus pneumoniae
[13] = system: S. pneumoniae; assay: Broth microdilution; type: cell-based, Streptococcus pneumoniae; conditions: 275 isolates
[14] = system: viridans group streptococci (VGS); assay: MIC; type: cell-based
[15] = system: C. jejuni ATCC 33560; assay: VetMIC broth microdilution, QC strain; type: cell-based; conditions: Campylobacter jejuni, ATCC33560, read-out: QC limits (MIC)
[16] = ICU, SRGA breakpoints, tigecycline tentative S ≤2 μg/ml

With `CO[C@H]1/C=C/O[C@@]2(C)Oc3c(C)c(O)c4c(O)c(c(/C=N/N5CCN(C)CC5)c(O)c4c3C2=O)NC(=O)/C(C)=C\C=C\[C@H](C)[C@H](O)[C@@H](C)[C@@H](O)[C@@H](C)[C@H](OC(C)=O)[C@@H]1C` [Rifampicin] the Susceptibility ([1]; ICU) was 86%, the Susceptibility ([1]; non-ICU) was 97% and the Susceptibility [2, 16] was 99/99%. The Susceptibility ([2]; non-ICU) was 99/99%.
With `C[C@]1(Cn2ccnn2)[C@H](C(=O)O)N2C(=O)C[C@H]2S1(=O)=O` [Tz, Tazobactam] the “isolates inhibited at 8 mg/L” value [3] was 97%, the “isolates inhibited at 16 mg/L” value [3] was 98% and the “isolates inhibited at =/< 4 mg/L” value [3] was 86%. The “isolates inhibited at 8 mg/L” value [4] was 56%, the “isolates inhibited at 16 mg/L” value [4] was 86% and the “isolates inhibited at =/< 4 mg/L” value [4] was 23%. For the same compound, the “isolates inhibited at 16 mg/L” value [5] was 100%, the “isolates inhibited at =/< 4 mg/L” value [5] was 42% and the “isolates inhibited at 8 mg/L” value [6] was 83%. The “isolates inhibited at 16 mg/L” value [6] was 100%, the “isolates inhibited at =/< 4 mg/L” value [6] was 50% and the “isolates inhibited at 8 mg/L” value [7] was 50%. The “isolates inhibited at 16 mg/L” value [7] was 100% and the “isolates inhibited at =/< 4 mg/L” value [7] was 25%.
`CCC[C@@H]1C[C@@H](C(=O)N[C@@H]([C@H]2O[C@H](SC)[C@H](O)[C@@H](O)[C@H]2O)[C@H](C)Cl)N(C)C1` [clindamycin] was tested, and the resistant [8] was 5%, the “% resistant” value [9] was “More than 30%” and the MIC [10] was > 256 µg/mL. For the same compound, the MIC range [11] was 0.016 to 0.125 mg/L, the MIC50 ([11]; Fusobacterium necrophorum) was 0.032 µg/mL (≈ 0.0753 µM) and the MIC90 ([11]; Fusobacterium necrophorum) was 0.064 µg/mL (≈ 0.151 µM). For the same compound, the “% S” value [12]; 1998 was 94/- %, the “% S” value [12]; 1999 was 95/- % and the “% S” value [12]; 2000 was 96/- %. For the same compound, the “% S” value [12]; 2001 was 95/- %, the “% S” value [12]; 2002 was 100/- % and the “% S” value [12]; 2003 was 98/- %. For the same compound, the Susceptibility [2, 16] was 99%, the Susceptibility ([2]; non-ICU) was 96% and the Susceptibility [13] was 91.3%. For the same compound, the MIC50 [14] was 0.06 µg/mL (≈ 0.141 µM) and the MIC90 [14] was 256 µg/mL (≈ 602 µM).
With `CCN1CCN(c2cc3c(cc2F)c(=O)c(C(=O)O)cn3C2CC2)CC1` [enrofloxacin] the MIC [15] was 0.25 to 0.5 µg/mL (≈ 0.696 to 1.39 µM).
